# Data from patent US6737383B1, “Herbicidal oxadiazolidines” (priority 1999, dated 2004).
# Tests used:
# [1] = tested on: morningglory; assay: Test B pre/postemergence morningglory; type: in vivo, Ipomoea hederacea
# Procedure, shortened: (§1)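 Herbicidal effect was estimated by eye on a ten-point control scale after plants spent twelve to sixteen days in a greenhouse following soil or foliar treatment. Foliar sprays targeted plants at one to four leaves; all doses were formulated in a non-phytotoxic solvent with surfactant.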
# [2] = tested on: pigweed; assay: Test B pre/postemergence pigweed; type: in vivo, Amaranthus retroflexus
# Procedure, shortened: as §1
# [3] = tested on: wild oat; assay: Test B pre/postemergence wild oat; type: in vivo, Avena fatua
# Procedure, shortened: as §1
# [4] = Postemergence, Rate 250 g/ha, scale 0 to 10
# [5] = Postemergence, Rate 500 g/ha, scale of 0 to 10 where 0 is no effect and 10 is complete control
# [6] = Preemergence, Rate 62 g/ha, scale of 0 to 10 where 0 is no effect and 10 is complete control
# [7] = Preemergence, Rate 125 g/ha, scale of 0 to 10 where 0 is no effect and 10 is complete control
# [8] = Preemergence, Rate 250 g/ha, scale 0 to 10, 0 is no effect, 10 is complete control
# [9] = Preemergence, Rate 500 g/ha, scale 0 to 10, 0 is no effect, 10 is complete control
# [10] = Rate 62 g/ha, Postemergence, scale 0 to 10 (0 no effect, 10 complete control)
# [11] = Rate 125 g/ha, Postemergence, scale 0 to 10, 0 is no effect, 10 is complete control
# [12] = Preemergence, Rate 500 g/ha, scale of 0 to 10 where 0 is no effect and 10 is complete control
# [13] = Rate 62 g/ha, Postemergence, scale of 0 to 10 where 0 is no effect and 10 is complete control
# [14] = Rate 125 g/ha, Postemergence, scale 0 to 10
# [15] = Rate 125 g/ha, Preemergence, scale of 0 to 10 where 0 is no effect and 10 is complete control
# [16] = Rate 500 g/ha, Postemergence, scale 0 to 10
# [17] = Postemergence, Rate 62 g/ha, scale 0 to 10, 0 is no effect, 10 is complete control
# [18] = Postemergence, Rate 125 g/ha, scale of 0 to 10 where 0 is no effect and 10 is complete control
# [19] = Preemergence, Rate 62 g/ha, scale 0 to 10 (0 no effect, 10 complete control)
# [20] = Preemergence, Rate 250 g/ha, scale of 0 to 10 where 0 is no effect and 10 is complete control
# [21] = Preemergence, Rate 500 g/ha, scale 0 (no effect) to 10 (complete control)
# [22] = Rate 500 g/ha, Postemergence, scale 0 to 10, 0 no effect, 10 complete control
# [23] = Preemergence, Rate 125 g/ha, 0 is no effect, 10 is complete control
# [24] = Rate 250 g/ha, Postemergence, scale 0 to 10, 0 is no effect, 10 is complete control
# [25] = Postemergence, Rate 125 g/ha, scale 0 to 10, 0 is no effect, 10 is complete control
# [26] = Postemergence, Rate 250 g/ha, scale 0 to 10, 0 is no effect, 10 is complete control
# [27] = Rate 125 g/ha, Postemergence, scale of 0 to 10 where 0 is no effect and 10 is complete control
# [28] = Rate 250 g/ha, Postemergence, scale of 0 to 10 where 0 is no effect and 10 is complete control
# [29] = Preemergence, Rate 500 g/ha, scale 0 to 10 (0 no effect, 10 complete control)
compound,measurement,setting,value
COC(C)n1c(=O)on(C(=O)N(c2ccccc2)C(C)C)c1=O (stereo not drawn) [Compound 441],Morningglory plant response rating,[1]; [4],0
same,Morningglory plant response rating,[1]; [5],0
same,"Plant response rating, Morningglory",[1]; [6],0
same,"Plant response rating, Morningglory",[1]; [7],0
same,Morningglory plant response rating,[1]; [8],0
same,Morningglory plant response rating,[1]; [9],0
same,Morningglory plant response rating,[1]; [10],0
same,Morningglory plant response rating,[1]; [11],0
same,Redroot pigweed plant response rating,[2]; [4],0
same,Redroot pigweed plant response rating,[2]; [5],0
same,"Plant response rating, Redroot pigweed",[2]; [6],0
same,"Plant response rating, Redroot pigweed",[2]; [7],0
same,Redroot pigweed plant response rating,[2]; [8],0
same,Redroot pigweed plant response rating,[2]; [9],0
same,Redroot pigweed plant response rating,[2]; [10],0
same,Redroot pigweed plant response rating,[2]; [11],0
same,Wild oats plant response rating,[3]; [4],0
same,Wild oats plant response rating,[3]; [5],0
same,"Plant response rating, Wild oats",[3]; [6],0
same,"Plant response rating, Wild oats",[3]; [7],0
same,Wild oats plant response rating,[3]; [8],0
same,Wild oats plant response rating,[3]; [9],0
same,Wild oats plant response rating,[3]; [10],0
same,Wild oats plant response rating,[3]; [11],0
CC(C)N(C(=O)n1oc(=O)n(CC=Cc2ccccc2)c1=O)c1ccc(F)cc1 [Compound 210],Morningglory plant response rating,[1]; [6],0
same,Morningglory plant response rating,[1]; [8],0
same,"Plant response rating, Morningglory",[1]; [12],0
same,Morningglory plant response rating,[1]; [13],2
same,Morningglory plant response rating,[1]; [14],2
same,Morningglory plant response rating,[1]; [15],0
same,"Plant response rating (0 to 10; 0 is no effect, 10 is complete control), Morningglory","[1]; Rate 250 g/ha, Postemergence",3
same,Morningglory plant response rating,[1]; [16],7
same,Redroot pigweed plant response rating,[2]; [6],0
same,Redroot pigweed plant response rating,[2]; [8],2
same,"Plant response rating, Redroot pigweed",[2]; [12],8
same,Redroot pigweed plant response rating,[2]; [13],0
same,Redroot pigweed plant response rating,[2]; [14],0
same,Redroot pigweed plant response rating,[2]; [15],0
same,"Plant response rating (0 to 10; 0 is no effect, 10 is complete control), Redroot pigweed","[2]; Rate 250 g/ha, Postemergence",2
same,Redroot pigweed plant response rating,[2]; [16],6
same,Wild oats plant response rating,[3]; [6],0
same,Wild oats plant response rating,[3]; [8],2
same,"Plant response rating, Wild oats",[3]; [12],2
same,Wild oats plant response rating,[3]; [13],0
same,Wild oats plant response rating,[3]; [14],0
same,Wild oats plant response rating,[3]; [15],0
same,"Plant response rating (0 to 10; 0 is no effect, 10 is complete control), Wild oats","[3]; Rate 250 g/ha, Postemergence",0
CC(C)N(C(=O)n1oc(=O)n(-c2cnn(C)c2Cl)c1=O)c1ccc(F)cc1 [Compound 97],Morningglory plant response rating,[1]; [17],1
same,Morningglory plant response rating,[1]; [18],1
same,Morningglory plant response rating,"[1]; Postemergence, Rate 250 g/ha, scale 0 to 10, 0 no effect, 10 complete control",3
same,Morningglory plant response rating,[1]; [19],0
same,"Plant response rating, Morningglory","[1]; Preemergence, Rate 125 g/ha, scale 0 to 10 (0 no effect, 10 complete control)",0
same,"Plant response rating, Morningglory",[1]; [20],0
same,Morningglory plant response rating,[1]; [21],0
same,Morningglory plant response rating,[1]; [22],3
same,Redroot pigweed plant response rating,[2]; [17],0
same,Redroot pigweed plant response rating,[2]; [18],0
same,Redroot pigweed plant response rating,[2]; [19],0
same,"Plant response rating, Redroot pigweed",[2]; [20],4
same,Redroot pigweed plant response rating,[2]; [21],10
same,Redroot pigweed plant response rating,[2]; [22],5
same,Wild oats plant response rating,[3]; [17],0
same,Wild oats plant response rating,[3]; [18],0
same,Wild oats plant response rating,[3]; [19],0
same,Wild oats plant response rating (0 to 10 scale),[3]; [23],2
same,"Plant response rating, Wild oats",[3]; [20],2
same,Wild oats plant response rating,[3]; [21],5
same,"Plant response rating, Wild oats",[3]; [24],0
same,Wild oats plant response rating,[3]; [22],0
CCOc1nc(C(F)(F)F)c(Cn2c(=O)on(C(=O)N(c3ccc(F)cc3)C(C)C)c2=O)s1 [Compound 381],"Plant response rating, Morningglory",[1]; [25],2
same,"Plant response rating, Morningglory",[1]; [26],2
same,"Plant response rating, Morningglory",[1]; [19],0
same,Morningglory plant response rating (0 to 10 scale),"[1]; Preemergence, Rate 125 g/ha",0
same,Morningglory plant response rating,[1]; [20],0
same,Morningglory plant response rating,[1]; [12],0
same,Morningglory plant response rating,[1]; [13],2
same,"Plant response rating, Morningglory",[1]; [22],7
same,"Plant response rating, Redroot pigweed",[2]; [25],0
same,"Plant response rating, Redroot pigweed",[2]; [26],0
same,"Plant response rating, Redroot pigweed",[2]; [19],0
same,Redroot pigweed plant response rating (0 to 10 scale),"[2]; Preemergence, Rate 125 g/ha",0
same,Redroot pigweed plant response rating,[2]; [20],0
same,Redroot pigweed plant response rating,[2]; [12],0
same,Redroot pigweed plant response rating,[2]; [13],0
same,"Plant response rating, Redroot pigweed",[2]; [22],2
same,"Plant response rating, Wild oats",[3]; [25],0
same,"Plant response rating, Wild oats",[3]; [26],0
same,"Plant response rating, Wild oats",[3]; [19],0
same,Wild oats plant response rating (0 to 10 scale),"[3]; Preemergence, Rate 125 g/ha",0
same,Wild oats plant response rating,[3]; [20],0
same,Wild oats plant response rating,[3]; [12],0
same,Wild oats plant response rating,[3]; [13],0
same,"Plant response rating, Wild oats",[3]; [22],0
CC(C)N(C(=O)n1oc(=O)n(C[Si](C)(C)C)c1=O)c1ccc(F)cc1 [Compound 294],Morningglory plant response rating,[1]; [6],0
same,Morningglory plant response rating,[1]; [20],0
same,"Plant response rating, Morningglory",[1]; [12],0
same,Morningglory plant response rating,[1]; [10],6
same,Morningglory plant response rating,[1]; [27],6
same,Morningglory plant response rating,[1]; [15],0
same,"Plant response rating, Morningglory",[1]; [28],9
same,Redroot pigweed plant response rating,[2]; [6],0
same,Redroot pigweed plant response rating,[2]; [20],0
same,"Plant response rating, Redroot pigweed",[2]; [12],2
same,Redroot pigweed plant response rating,[2]; [10],0
same,Redroot pigweed plant response rating,[2]; [27],0
same,Redroot pigweed plant response rating,[2]; [15],0
same,"Plant response rating, Redroot pigweed",[2]; [28],0
same,Wild oats plant response rating,[3]; [6],0
same,Wild oats plant response rating,[3]; [20],3
same,"Plant response rating, Wild oats",[3]; [12],8
same,Wild oats plant response rating,[3]; [10],0
same,Wild oats plant response rating,[3]; [27],0
same,"Plant response rating, Wild oats",[3]; [28],0
CCN(CC)C(=O)n1oc(=O)n(-c2ccccc2C)c1=O [Compound 364],"Plant response rating, Morningglory",[1]; [25],0
same,"Plant response rating, Morningglory",[1]; [26],0
same,"Plant response rating, Morningglory",[1]; [19],0
same,Morningglory plant response rating (0 to 10 scale),"[1]; Preemergence, Rate 125 g/ha",0
same,Morningglory plant response rating,[1]; [20],0
same,Morningglory plant response rating,[1]; [12],0
same,Morningglory plant response rating,[1]; [13],0
same,"Plant response rating, Morningglory",[1]; [22],4
same,"Plant response rating, Redroot pigweed",[2]; [25],0
same,"Plant response rating, Redroot pigweed",[2]; [26],0
same,"Plant response rating, Redroot pigweed",[2]; [19],0
same,Redroot pigweed plant response rating (0 to 10 scale),"[2]; Preemergence, Rate 125 g/ha",0
same,Redroot pigweed plant response rating,[2]; [20],0
same,Redroot pigweed plant response rating,[2]; [12],0
same,Redroot pigweed plant response rating,[2]; [13],0
same,"Plant response rating, Redroot pigweed",[2]; [22],0
same,"Plant response rating, Wild oats",[3]; [25],0
same,"Plant response rating, Wild oats",[3]; [26],0
same,"Plant response rating, Wild oats",[3]; [19],0
same,Wild oats plant response rating (0 to 10 scale),"[3]; Preemergence, Rate 125 g/ha",0
same,Wild oats plant response rating,[3]; [20],0
same,Wild oats plant response rating,[3]; [12],3
same,Wild oats plant response rating,[3]; [13],0
same,"Plant response rating, Wild oats",[3]; [22],0
Cc1nsc(C)c1-n1c(=O)on(C(=O)N(c2ccc(Cl)cc2)C(C)C)c1=O [Compound 159],Morningglory plant response rating,[1]; [18],2
same,Morningglory plant response rating,[1]; [6],0
same,Morningglory plant response rating (0 to 10 scale),[1]; [23],0
same,Morningglory plant response rating,[1]; [8],0
same,Morningglory plant response rating,[1]; [29],0
same,Morningglory plant response rating,[1]; [13],0
same,"Plant response rating, Morningglory",[1]; [24],3
same,Morningglory plant response rating,[1]; [16],4
same,Redroot pigweed plant response rating,[2]; [18],0
same,Redroot pigweed plant response rating,[2]; [6],0
same,Redroot pigweed plant response rating (0 to 10 scale),[2]; [23],0
same,Redroot pigweed plant response rating,[2]; [8],0
same,Redroot pigweed plant response rating,[2]; [29],0
same,Redroot pigweed plant response rating,[2]; [13],0
same,"Plant response rating, Redroot pigweed",[2]; [24],0
same,Redroot pigweed plant response rating,[2]; [16],0
same,Wild oats plant response rating,[3]; [6],0
same,Wild oats plant response rating (0 to 10 scale),[3]; [23],0
same,Wild oats plant response rating,[3]; [8],0
same,Wild oats plant response rating,[3]; [29],0
same,"Plant response rating, Wild oats",[3]; [24],0
same,Wild oats plant response rating,[3]; [16],0
